Consider four molecules from paper PMC5543143, “Structural Basis for the Mechanism of ATP-Dependent Acetone Carboxylation” (Scientific Reports, 2017).

For series [1], the target named is T1, native acetone carboxylase (AC) from X. autotrophicus 7C (Xanthobacter versatilis, UniProt Q8RM03+Q8RM04). As to the kind of experiment: X-ray crystal structure. Particulars: co-crystallised with 10 mM ATP and 10 mM acetone; AMP bound at beta subunit; acetate at Mn site; pH 7.5. The arrangement: gene acxA; native purification from acetone-grown cells, untagged; (alpha beta gamma)2 heterohexamer, 360 kDa; with Acetone carboxylase gamma subunit. It is filed as binding.
T1 sequence (Q8RM04 whole entry, one chain of several): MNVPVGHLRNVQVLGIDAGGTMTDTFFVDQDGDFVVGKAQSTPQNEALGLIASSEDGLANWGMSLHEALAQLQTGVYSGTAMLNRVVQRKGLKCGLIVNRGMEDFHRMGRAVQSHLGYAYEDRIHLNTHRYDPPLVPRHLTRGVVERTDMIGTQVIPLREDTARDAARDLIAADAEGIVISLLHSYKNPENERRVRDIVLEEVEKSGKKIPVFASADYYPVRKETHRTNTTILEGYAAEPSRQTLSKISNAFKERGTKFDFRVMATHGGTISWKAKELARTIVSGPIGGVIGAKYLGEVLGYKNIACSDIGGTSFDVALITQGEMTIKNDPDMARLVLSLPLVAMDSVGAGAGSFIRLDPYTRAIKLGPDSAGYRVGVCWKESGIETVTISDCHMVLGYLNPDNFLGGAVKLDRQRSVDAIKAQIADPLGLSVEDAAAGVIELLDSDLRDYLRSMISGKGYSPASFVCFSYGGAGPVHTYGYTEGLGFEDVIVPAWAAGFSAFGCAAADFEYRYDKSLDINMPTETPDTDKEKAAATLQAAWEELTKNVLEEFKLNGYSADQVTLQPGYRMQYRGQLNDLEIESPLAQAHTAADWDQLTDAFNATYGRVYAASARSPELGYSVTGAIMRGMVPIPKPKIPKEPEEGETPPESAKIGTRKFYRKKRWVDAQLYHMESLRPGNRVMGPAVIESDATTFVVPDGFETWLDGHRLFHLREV
T1 sequence (Q8RM02 2-168, one chain of several, further chain): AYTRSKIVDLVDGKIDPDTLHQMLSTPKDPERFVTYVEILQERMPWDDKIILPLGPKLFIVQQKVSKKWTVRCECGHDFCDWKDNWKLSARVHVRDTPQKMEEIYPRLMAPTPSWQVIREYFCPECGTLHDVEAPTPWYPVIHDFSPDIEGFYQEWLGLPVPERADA

The target of series [2] is T2, acetone carboxylase (AC, XaAC), recombinant (Xanthobacter versatilis, UniProt Q8RM03+Q8RM04).
T2 construct: gene acxA
T2 sequence (Q8RM04 whole entry, one chain of several): as the sequence (Q8RM04 whole entry, one chain of several) above
T2 sequence (Q8RM02 2-168, one chain of several, further chain): as the sequence (Q8RM02 2-168, one chain of several, further chain) above
Particulars: turnover only.

Series [3] concerns the target T1, native acetone carboxylase (AC) from X. autotrophicus 7C. Further details: gene acxA. Particulars: with acetone and HCO3-; turnover only.
Series [4] concerns the molecule itself. As to the kind of experiment: crystal structure; recombinant AC (αβγ)2, ligand-free and AMP-bound; hanging drop, 25 °C, 14-18% PEG 3350, 0.2 M MgSO4, pH 6.3; nucleotide additives 5 mM; SAD with selenium.

Where two headings read alike, the source gives them in different places.

As for `Nc1ncnc2c1ncn2[C@@H]1O[C@H](COP(=O)(O)O)[C@@H](O)[C@H]1O` [AMP], the X-ray crystal structure result in series [1] was “with AMP bound and no acetone visible in the density”.
Take `Nc1ncnc2c1ncn2[C@@H]1O[C@H](COP(=O)(O)OP(=O)(O)OP(=O)(O)O)[C@@H](O)[C@H]1O` [ATP]: the “coupled spectrophotometric assay with 3-hydroxybutyrate dehydrogenase” value in series [2] (with acetone and HCO3-) is “actively catalyzed the ATP- and HCO3 ^− -dependent carboxylation of acetone to acetoacetate”. The acetone carboxylation activity entry in series [3] is “actively catalyzed the ATP- and HCO3 ^− -dependent carboxylation of acetone to acetoacetate”.
In the case of `CC(C)=O` [acetone], the “coupled spectrophotometric assay with 3-hydroxybutyrate dehydrogenase” value in series [2] (ATP and HCO3- dependent carboxylation to acetoacetate) is “actively catalyzed the ATP- and HCO3 ^− -dependent carboxylation of acetone to acetoacetate”.

B1: acetone carboxylase α subunit (AcxB) from Xanthobacter autotrophicus Py2, recombinant (natural protein, UniProt Q8RM03 1-776, looked up)
chain: MNVTVDQSTLAGATRGIVRGGETLKEHRDRLMAATKATGRYAGLKTLELREREPILYNKLFSRLRAGVVDARETAKKIAASPIVEQEGELCFTLYNAAGDSLLTSTGIIIHVGTMGAAIKYMIENNWEANPGVHDKDIFCNNDSLIGNVHPCDIHTIVPIFWEGELIGWVGGVTHVIDTGAVGPGSMATGQVQRFGDGYSITCRKVGANDTLFRDWLHESQRMVRTTRYWMLDERTRIAGCHMIRKLVEEVVAEEGIEAYWKFAYEAVEHGRLGLQARIKAMTIPGTYRQVGFVDVPYAHEDVRVPSDFAKLDTIMHAPCEMTIRRDGTWRLDFEGSSRWGWHTYNAHQVSFTSGIWVMMTQTLIPSEMINDGAAYGTEFRLPKGTWMNPDDRRVAFSYSWHFLVSAWTALWRGLSRSYFGRGYLEEVNAGNANTSNWLQGGGFNQYDEIHAVNSFECAANGTGATAVQDGLSHAAAIWNPEGDMGDMEIWELAEPLVYLGRQIKASSGGSGKYRGGCGFESLRMVWNAKDWTMFFMGNGHISSDWGLMGGYPAASGYRFAAHKTNLKELIASGAEIPLGGDTDPENPTWDAMLPDAQIKRDKQAITTEEMFSDYDLYLNYMRGGPGFGDPLDREPQAVADDINGGYVLERFAGEVYGVVVRKGADGQYGVDEAGTAAARAQIRKDRLAKSVPVSEWMKGEREKILAKDAGTQVRQMFAASFKLGPRFEKDFRTFWSLPDSWTLPEEEIGVPTYGSRYSMDISELPDVHTVQFVEE
notes: acetone carboxylase α subunit (75 kDa), gene acxB (Xaut_3510), X. autotrophicus Py2; amplified from the start to the stop codon; Subunit of the (αβγ)2 heterohexamer; The initial structure was solved from selenomethionine-labelled protein; also called AC α; Xaut_3510; source: E. coli BL21(DE3), co-expressed with the β and γ subunits, purified (His-NTA, desalting)
Take B1: the binding result in series [4] is listed as “binds”.
